Patent US10653779B2, “Formulations with reduced oxidation” (Genentech, Inc., priority 2013, dated 2020)
“Also recorded” adds a separate entry of the source.

Columns and labels:
[1] = Photosensitivity screening: H2O2 formation by antioxidant candidates upon light exposure (Amplex Ultra Red Assay); assay type: physicochemical
Method: As a screening tool, antioxidant candidates were exposed to light for four hours at 250 W/m^2 and the resulting H2O2 formation was quantified by the Amplexassay. Specifically, antioxidants were prepared to 1 mM in 20 mM histidine acetate buffer at pH 5.5. The 1 mM antioxidant solutions were aliquoted into glass vials (2 mL/glass vial) and exposed to four hours of light at 250 W/m^2 in an Atlas SunTest CPS+ Xenon Test Instrument (Chicago, Ill.). Total UV dose was 90 watt-hours/square meter and total visible dose was 0.22 million lux hours over the 4-hour period. Control vials were wrapped in aluminum foil and treated similarly. The amount of hydrogen peroxide generated after exposure to light was measured using the Amplex® Ultra Red Assay (Invitrogen, Carlsbad, Calif.) following the manufacturer's recommended procedure. On addition of horseradish peroxidase (HRP), the dye reacted 1:1 stoichiometrically with H2O2, resulting in the production of fluorescent oxidation product resorufin. In this study, fluorescence readings were obtained using a Spectra Max M2 Micro-plate Reader (Molecular Devices, Sunnyvale, Calif.) with excitation and emission set at 560 nm and 590 nm, respectively. Final H2O2 concentrations were determined using a standard curve ranging from 0 μm to 20 μm. […]

[2] = Cyclic voltammetry (CV) screening of oxidation potentials; assay type: physicochemical; details: for Oxidation Potential (anodic peak): glassy carbon working electrode, 0.2 M lithium perchlorate
Method: The oxidation/reduction characteristics of the compounds were investigated. Several compounds, including L-Trp and derivatives, were evaluated for the protection of Trp oxidation in proteins using cyclic voltammetry (CV) and rank ordered based on their oxidation potentials (Table 2). Specifically, the candidate antioxidants were dissolved in deionized water and then added to a 0.2 M lithium perchlorate electrolyte solution. […] Solutions were scanned from −0.10 V to +1.50 V at a scan rate of either 100 or 500 mV/sec. The analytical cell was purged for four minutes with nitrogen before scanning of each antioxidant solution. The input was a linear scan of the potential of a working electrode, and the output was measurement of the resulting current. […] Redox reactions were characterized by sharp increases or decreases in current (peaks). The potential at which an oxidation reaction occurred was referred to as the anodic peak potential (or oxidation potential), and the potential at which a reduction occurred was referred to as is the cathodic peak (or reduction) potential.

mAb1 [3] = experiment: mAb1 AAPH stress study; Fab/Fc oxidation by RP-HPLC; assay type: physicochemical, human; details: antioxidants at 1 mM; for Fab (Trp residue) oxidation of mAb1 after AAPH incubation: 24 hours at 40° C., label mAb1 = no excipient
Text: (§1) The fragments were reduced with DTT, and then separated and identified via Liquid Chromatography-Mass Spectrometry (LC-MS). […] Comparison of area integrated under the oxidized and native peaks was used to quantify HC Fab and Fc oxidation. […] By using the papain digest RP-HPLC method in the present study it was possible to investigate Trp residue oxidation by quantifying HC Fab oxidation, and Met residue oxidation by quantifying HC Fc oxidation.
% Fab oxidation and % Fc oxidation were calculated as follows: […]
Antioxidants were added at 1 mM. […] After buffer exchange, each solution was prepared for analysis by reverse-phase HPLC as described above.

mAb1 [4] = experiment: mAb1 light stress study, 16 hours; Fab/Fc oxidation by RP-HPLC; assay type: physicochemical, human; details: for Fab oxidation increase over the control level (mAb1 Ref Mat): label mAb1 = No Excipient
Method: as §1
Antioxidants were added at 1 mM. Glass vials containing these formulations were exposed to 250 W/m^2 light in an Atlas SunTest CPS+ Xenon Test Instrument (Chicago, Ill.). Control vials were wrapped in aluminum foil and treated similarly. After light exposure, solutions were prepared for analysis by reverse-phase HPLC as described above.

mAb1 [5] = experiment: mAb1 light stress, eight hours, with L-Trp and L-Met; Fab/Fc oxidation by papain digest RP-HPLC; assay type: physicochemical, human; details: label mAb1 = No Excipient
Method: L-tryptophan (L-Trp), an antioxidant used in protein formulations, has been recently shown to be photosensitive (Igarashi et al., Anal Sci 23(8):943-8 (2007)) and to have the ability to produce H2O2 upon light exposure. […] Control vials were wrapped in aluminum foil and treated similarly. After light exposure, solutions were prepared for analysis by reverse-phase HPLC. […] Following incubation, 900 μL of the solution was combined with 100 μL of 1 M dithiothreitol (DTT) and incubated for another thirty minutes at 37° C. Samples were then run on an Agilent, Inc. 1100/1200 HPLC system (Santa Clara, Calif.) equipped with UV detection at 280 nm in conjunction with a Varian, Inc. Pursuit 3 μm, 2 mm ID×250 mm diphenyl column (Palo Alto, Calif.). Mobile Phase A was 0.1% TFA in water. Mobile Phase B was 0.1% TFA in acetonitrile. The mobile phase gradient increased linearly from 34% B at 0 minutes to 43% B at 50.0 minutes, then to 95% B at 50.1 minutes. The gradient remained at 95% B until 60.1 minutes, and then decreased linearly from 95% B to 34% B between 60.1 and 60.2 minutes. The gradient remained at 34% B until the end of the cycle at 80.2 minutes. The column temperature was 65° C., total flow rate was 0.2 mL/min, and injection volume of each sample was 6 μL. Chromatograms were then integrated for quantification of oxidation.

mAb1 [6] = experiment: mAb1 Fenton stress study (H2O2 + Fe); Fab/Fc oxidation by RP-HPLC; assay type: physicochemical, human; details: 10 ppm H2O2, 0.2 mM Fe(III), 40° C. for 3 hours, no excipient
Method: Antioxidants were added at a final concentration of 1 mM. […] After incubation, each reaction was quenched by addition of 100 mM L-Met and then prepared for analysis by reverse-phase HPLC as described above.
The Fenton reaction, using a mixture of H2O2 and Fe ions, generates oxidation through a metal catalyzed, hydroxyl radical reaction (Prousek et al., Pure and Applied Chemistry 79(12):2325-2338 (2007)). This reaction generated Fab, i.e. tryptophan, oxidation in mAb1. The reaction was also carried out in the presence of select antioxidants that were useful against both AAPH and light induced oxidation as reported above. Data related to the antioxidant properties against Fenton mediated reaction were analyzed using the RP-HPLC assay as described above. The Fenton reaction used 10 ppm of H2O2 and 0.2 mM of Fe(III). The reaction was incubated at 40° C. for 3 hours, quenched with 100 mM L-Met and analyzed using RP-HPLC after papain digest. All samples were the average of three separate vials, and mAb1 control (Ref Mat) was one vial with five independent injections on the HPLC. […] In regards to protection against Fc oxidation, the tested excipients (other than salicylic acid) performed slightly better than L-Trp.

[7] = 1 mM in 20 mM histidine acetate pH 5.5, four hours of light at 250 W/m^2
[8] = 1 mM, 20 mM L-His-acetate pH 5.5, 4 h light, 0.22 million lux hours
[9] = 16 hours of light at 250 W/m^2, excipient 1 mM

Compound	(H2O2 produced by Compound)/(H2O2 produced by L-Trp) [1, 7]	H2O2 production upon light exposure compared to L-Trp (in words) [1, 8]	Oxidation Potential (anodic peak) [2]	Fab (Trp residue) oxidation of mAb1 after AAPH incubation (mAb1 [3])	Effect on light-induced Fab oxidation (in words) (mAb1 [4]; [9])	(H2O2 produced by Compound)/(H2O2 produced by L-Trp) ([1]; pH 5.5)	H2O2 production upon light exposure compared to L-Trp (in words) ([1]; pH 5.5)	Oxidation potential relative to L-Trp (in words) ([2]; cyclic voltammetry)	Effect on AAPH-induced Fab oxidation (in words) (mAb1 [3]; AAPH 24 hours at 40° C.)	Fc oxidation under light stress compared to no excipient control (in words) (mAb1 [4]; [9])	Fab oxidation increase over the control level (mAb1 Ref Mat) (mAb1 [4]; [9])	Fab oxidation of mAb1 (mAb1 [5]; 5 mg/mL mAb1, 8 h light at 250 W/m^2, L-Trp at 1 mM)	Effect on Fc oxidation of mAb1 (in words) (mAb1 [5]; 8 h light at 250 W/m^2, L-Met 10, 25, 50, 100 mM added to 1 mM L-Trp)	Increase in Fc oxidation over the control level (mAb1 [4]; 16 hours of light at 250 W/m^2, no excipient)	Oxidation in the Fab region of mAb1 over the control (in words) (mAb1 [6])
NCCc1c[nH]c2ccc(O)cc12 [Serotonin (5-Hydroxytryptamine), 5-hydroxytryptamine]	0.03	very little H2O2; also recorded: low levels of H2O2 production	0.600 V vs Ag/AgCl	about 2%	reducing Fab oxidation to near control levels	–	–	–	–	–	–	–	–	–	–
O=C(O)c1ccccc1O [Salicylic Acid]	–	–	1.080 V vs Ag/AgCl	–	–	0.03	very little H2O2; also recorded: did not produce much H2O2	higher oxidation potential than L-Trp	almost no effect on Fab oxidation	more Fc oxidation	8 fold	–	–	–	–
Oc1ccc2[nH]ccc2c1 [5-Hydroxyindole, 5-Hydroxy Indole]	−0.08	low levels of H2O2 production	0.580 V vs Ag/AgCl	about 2%	reducing Fab oxidation to near control levels	–	–	–	–	–	–	–	–	–	–
mAb1: monoclonal anti-DR5 antibody, drozitumab (CAS number 912628-39-8), human monoclonal IgG1	–	–	–	–	–	–	–	–	–	–	3.5 fold	4%	only a minor increase in Fc oxidation	40%	about four times the oxidation
